In general, Kd refers to the free concentration of one partner at which half of the binding sites on the other are occupied at equilibrium, for simple one-to-one binding. In general, IC50 refers to the concentration needed to halve the response being measured.

Activity calls are given as the source filed them. The rule behind the calls is not given here.

The target of one data set is Beclin-1 (Homo sapiens, UniProt Q14457). Briefly: Binding affinity to Beclin 1 coiled coil domain (unknown origin) by isothermal titration calorimetry assay.
The subject of a further data set is HEK-293T. Nature of the data set: Cytotoxicity against HEK293T cells assessed as reduction in cell viability at 10 to 20 uM measured after 24 hrs by trypan blue exclusion assay. To be noted: human, dose 10-20 µM. It counts as cell-based.
Data set [1] relates to SK-BR-3. Nature of the data set: Antiproliferative activity against human SK-BR-3 cells assessed as reduction in cell growth incubated for 5 days by trypan blue exclusion assay. Type of data set: functional, cell-based. To be noted: time 5.0 day.
In data set [2] the test system is SK-BR-3. Nature of the data set: Antiproliferative activity against human SK-BR-3 cells assessed as reduction of cell growth measured after 24 hrs by trypan blue exclusion assay. The conditions noted are these: SK-BR-3, 24 h.
Data set [3] has as its system SK-BR-3. Nature of the data set: Induction of apoptosis in human SK-BR-3 cells assessed as increase in cleaved PARP expression at 0.15 uM incubated for 48 hrs by western blot analysis. Type of data set: functional, cell-based. On the technique in general: A western blot detects proteins with antibodies after separation by electrophoresis.
Data set [4] deals with SK-BR-3. Nature of the data set: Induction of apoptosis in human SK-BR-3 cells assessed as increase in cleaved caspase-3 expression at 0.15 uM incubated for 48 hrs by western blot analysis. It counts as functional, cell-based.

Beclin-1, sequence (Q14457 whole entry, the tested form may be a part): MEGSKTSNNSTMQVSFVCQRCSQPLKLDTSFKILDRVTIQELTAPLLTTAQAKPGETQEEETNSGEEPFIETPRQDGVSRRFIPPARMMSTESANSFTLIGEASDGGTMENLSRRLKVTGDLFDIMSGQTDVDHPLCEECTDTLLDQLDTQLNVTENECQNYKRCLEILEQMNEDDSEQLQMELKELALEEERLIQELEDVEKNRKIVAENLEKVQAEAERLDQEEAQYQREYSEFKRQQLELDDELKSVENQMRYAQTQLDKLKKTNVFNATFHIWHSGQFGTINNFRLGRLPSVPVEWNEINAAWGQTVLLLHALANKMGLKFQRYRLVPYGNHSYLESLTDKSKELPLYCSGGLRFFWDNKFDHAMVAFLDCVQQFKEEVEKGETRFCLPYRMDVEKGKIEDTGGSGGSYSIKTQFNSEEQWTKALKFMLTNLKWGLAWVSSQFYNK

The compound `CC[C@H](C)[C@H](NC(=O)[C@H](CC(C)C)NC(=O)[C@H](CCCNC(=N)N)NC(=O)[C@H](CCCNC(=N)N)NC(=O)[C@H](CCCNC(=N)N)NC(=O)[C@H](CCCNC(=N)N)NC(=O)[C@H](CCC(N)=O)NC(=O)[C@H](CCCNC(=N)N)NC(=O)[C@H](CCCNC(=N)N)NC(=O)[C@H](CCCCN)NC(=O)[C@H](CCCCN)NC(=O)[C@H](CCCNC(=N)N)NC(=O)CNC(=O)[C@H](Cc1ccc(O)cc1)NC(C)=O)C(=O)N[C@H](C(=O)N[C@@H]1CCCCCC/C=C/CCC[C@@H](C(=O)N[C@@H](CCCNC(=N)N)C(=O)N[C@@H](CCCCN)C(=O)N[C@@H](CCCNC(=N)N)C(N)=O)NC(=O)[C@H](CCCCN)NC(=O)[C@H](CCC(=O)O)NC(=O)[C@H](C(C)C)NC(=O)[C@H](CC(=O)O)NC(=O)[C@H](CCC(=O)O)NC(=O)[C@H](CCC(N)=O)NC1=O)[C@@H](C)CC` displayed a Kd at Beclin-1 of 356 µM.

With `CC(=O)N[C@@H](Cc1ccc(O)cc1)C(=O)NCC(=O)N[C@@H](CCCNC(=N)N)C(=O)N[C@@H](CCCCN)C(=O)N[C@@H](CCCCN)C(=O)N[C@@H](CCCNC(=N)N)C(=O)N[C@@H](CCCNC(=N)N)C(=O)N[C@@H](CCC(N)=O)C(=O)N[C@@H](CCCNC(=N)N)C(=O)N[C@@H](CCCNC(=N)N)C(=O)N[C@@H](CCCNC(=N)N)C(=O)N[C@@H](CCCNC(=N)N)C(=O)N[C@@H](CC(C)C)C(=O)N[C@@H](CC(C)C)C(=O)N[C@@H](CCC(N)=O)C(=O)N[C@@H]1CCCCCC/C=C/CCC[C@@H](C(=O)N[C@@H](CCCNC(=N)N)C(=O)N[C@@H](CO)C(=O)N[C@H](C(N)=O)C(C)C)NC(=O)[C@H](CCCCN)NC(=O)[C@H](CC(C)C)NC(=O)[C@H](C(C)C)NC(=O)[C@H]([C@@H](C)O)NC(=O)[C@H](CCCCN)NC(=O)[C@H](CC(C)C)NC1=O`, the result on Beclin-1 was inactive. With `CC[C@H](C)[C@H](NC(=O)[C@@H](NC(=O)[C@H](CCCNC(=N)N)NC(=O)[C@H](CCCNC(=N)N)NC(=O)[C@H](CCCNC(=N)N)NC(=O)[C@H](CCCNC(=N)N)NC(=O)[C@H](CCC(N)=O)NC(=O)[C@H](CCCNC(=N)N)NC(=O)[C@H](CCCNC(=N)N)NC(=O)[C@H](CCCCN)NC(=O)[C@H](CCCCN)NC(=O)[C@H](CCCNC(=N)N)NC(=O)CNC(=O)[C@H](Cc1ccc(O)cc1)NC(C)=O)C(C)C)C(=O)N[C@@H](CCC(N)=O)C(=O)N[C@@H]1CCCCCC/C=C/CCC[C@@H](C(=O)N[C@@H](CCCNC(=N)N)C(=O)N[C@@H](CC(=O)O)C(=O)N[C@H](C(N)=O)C(C)C)NC(=O)[C@H](CCCCN)NC(=O)[C@H](CCC(=O)O)NC(=O)[C@H]([C@@H](C)CC)NC(=O)[C@H]([C@@H](C)CC)NC(=O)[C@H](C(C)C)NC(=O)[C@H](CC(C)C)NC1=O`, the results for the Activity result in the data set with HEK-293T and with SK-BR-3 [1] were “Non-Toxic” and “Dose-dependent effect”, respectively. The IC50 in the data set on SK-BR-3 [2] was found to be 13.6 µM.

Regarding `CC[C@H](C)[C@H](NC(=O)[C@H](CC(C)C)NC(=O)[C@H](CCCNC(=N)N)NC(=O)[C@H](CCCNC(=N)N)NC(=O)[C@H](CCCNC(=N)N)NC(=O)[C@H](CCCNC(=N)N)NC(=O)[C@H](CCC(N)=O)NC(=O)[C@H](CCCNC(=N)N)NC(=O)[C@H](CCCNC(=N)N)NC(=O)[C@H](CCCCN)NC(=O)[C@H](CCCCN)NC(=O)[C@H](CCCNC(=N)N)NC(=O)CNC(=O)[C@H](Cc1ccc(O)cc1)NC(C)=O)C(=O)N[C@@H](CCC(N)=O)C(=O)N[C@@H]1CCCCCC/C=C/CCC[C@@H](C(=O)N[C@@H](CCCNC(=N)N)C(=O)N[C@@H](CCCCN)C(=O)N[C@@H](CCCNC(=N)N)C(N)=O)NC(=O)[C@H](CCCCN)NC(=O)[C@H](CCC(=O)O)NC(=O)[C@H](C(C)C)NC(=O)[C@H](CC(=O)O)NC(=O)[C@H](CCC(=O)O)NC(=O)[C@H](CCCNC(=N)N)NC1=O`, the outcome at Beclin-1 was inactive. Turning to `CC[C@H](C)[C@H](NC(=O)[C@H](Cc1ccccc1)NC(=O)[C@H](CCCNC(=N)N)NC(=O)[C@H](CCCNC(=N)N)NC(=O)[C@H](CCCNC(=N)N)NC(=O)[C@H](CCCNC(=N)N)NC(=O)[C@H](CCC(N)=O)NC(=O)[C@H](CCCNC(=N)N)NC(=O)[C@H](CCCNC(=N)N)NC(=O)[C@H](CCCCN)NC(=O)[C@H](CCCCN)NC(=O)[C@H](CCCNC(=N)N)NC(=O)CNC(=O)[C@H](Cc1ccc(O)cc1)NC(C)=O)C(=O)N[C@@H](CCC(N)=O)C(=O)N[C@@H]1CCCCCC/C=C/CCC[C@@H](C(=O)N[C@@H](CCCNC(=N)N)C(=O)N[C@@H](CO)C(=O)N[C@H](C(N)=O)C(C)C)NC(=O)[C@H](CCCCN)NC(=O)[C@H]([C@@H](C)CC)NC(=O)[C@H](C(C)C)NC(=O)[C@H](C(C)C)NC(=O)[C@H](CCC(=O)O)NC(=O)[C@H](CC(C)C)NC1=O`, at Beclin-1, the result was inactive. For `CC(=O)O[C@H]1C(=O)[C@@]2(C)[C@H]([C@H](OC(=O)c3ccccc3)[C@]3(O)C[C@H](OC(=O)[C@H](O)[C@@H](NC(=O)c4ccccc4)c4ccccc4)C(C)=C1C3(C)C)[C@]1(OC(C)=O)CO[C@@H]1C[C@@H]2O`, the outcome in the data set on SK-BR-3 [3] and in the data set on SK-BR-3 [4] was Active. `CC[C@H](C)[C@H](NC(=O)[C@H](CC(C)C)NC(=O)[C@H](CCCNC(=N)N)NC(=O)[C@H](CCCNC(=N)N)NC(=O)[C@H](CCCNC(=N)N)NC(=O)[C@H](CCCNC(=N)N)NC(=O)[C@H](CCC(N)=O)NC(=O)[C@H](CCCNC(=N)N)NC(=O)[C@H](CCCNC(=N)N)NC(=O)[C@H](CCCCN)NC(=O)[C@H](CCCCN)NC(=O)[C@H](CCCNC(=N)N)NC(=O)CNC(=O)[C@H](Cc1ccc(O)cc1)NC(C)=O)C(=O)N[C@@H](CO)C(=O)N[C@@H](CCC(=O)O)C(=O)N[C@@H](CC(C)C)C(=O)N[C@@H]1CCCCCC/C=C/CCC[C@@H](C(=O)N[C@@H](C)C(N)=O)NC(=O)[C@H](CCCNC(=N)N)NC(=O)[C@H](CCC(N)=O)NC(=O)[C@H](CCCCN)NC(=O)[C@H](CCC(=O)O)NC(=O)[C@H](CCCNC(=N)N)NC(=O)[C@H](CC(=O)O)NC1=O` came in with a Kd at Beclin-1 of 3.21 µM. That is a single-digit micromolar value. The same measure, in the same setting: to `CC[C@H](C)[C@H](NC(=O)[C@H](CC(C)C)NC(=O)[C@H](C)NC(=O)[C@H](CCCNC(=N)N)NC(=O)[C@H](CCCNC(=N)N)NC(=O)[C@H](CCCNC(=N)N)NC(=O)[C@H](CCC(N)=O)NC(=O)[C@H](CCCNC(=N)N)NC(=O)[C@H](CCCNC(=N)N)NC(=O)[C@H](CCCCN)NC(=O)[C@H](CCCCN)NC(=O)[C@H](CCCNC(=N)N)NC(=O)CNC(=O)[C@H](Cc1ccc(O)cc1)NC(C)=O)C(=O)N[C@@H](CCC(N)=O)C(=O)N[C@@H]1CCCCCC/C=C/CCC[C@@H](C(=O)N[C@@H](CCCNC(=N)N)C(=O)N[C@@H](CCCCN)C(=O)N[C@@H](CCCNC(=N)N)C(N)=O)NC(=O)[C@H](CCCCN)NC(=O)[C@H](CCC(=O)O)NC(=O)[C@H](C(C)C)NC(=O)[C@H](CC(=O)O)NC(=O)[C@H](CCC(=O)O)NC(=O)[C@H](CCC(N)=O)NC1=O` belongs 311 µM.

The values are drawn from ChEMBL document CHEMBL5053508, “Optimization of Beclin 1-Targeting Stapled Peptides by Staple Scanning Leads to Enhanced Antiproliferative Potency in Cancer Cells” (J Med Chem, 2021).
